What all share (assay): ≥ marks a high value that may be exact or a test limit, other limits are often not marked, values filed in µg/mL are converted to µM
Assay [1] deals with Staphylococcus aureus ATCC 43300.
In assay [2] the test system is Salmonella enterica subsp. enterica serovar Pullorum ATCC 7913.
Assay [3] deals with Staphylococcus aureus ATCC 29213.
The subject of assay [4] is Escherichia coli 078.
Assay [5] concerns Escherichia coli K88.
Assay [6] concerns Candida tropicalis CGMCC 2.1975.
Assay [7] has as its system Pseudomonas aeruginosa ATCC 27853.
Assay [8] has as its system Escherichia coli K99.
The subject of assay [9] is Salmonella enterica subsp. enterica serovar Typhimurium ATCC 14028.
Assay [10] has as its system Staphylococcus epidermidis ATCC 12228.
In assay [11] the test system is Salmonella enterica subsp. enterica serovar Typhimurium C77-31.
Assay [12] concerns Candida parapsilosis CGMCC 2.3989.
Assay [13] relates to Candida albicans CGMCC 2.2086.
Assay [14] deals with Escherichia coli UB1005.
Assay [15] relates to Staphylococcus aureus ATCC 25923.
Assay [16] has as its system Staphylococcus aureus ATCC 33591.
The test system of assay [17] is Staphylococcus epidermidis ATCC 35984.
For assay [18], the system named is Salmonella typhimurium DA6192.
Assay [19] deals with Bacillus subtilis ATCC 6633.
For assay [20], the system named is Escherichia coli ATCC 15597.
Assay [21] relates to Staphylococcus aureus ATCC 6538.
Assay [22] has as its system Micrococcus luteus ATCC 49732.
The subject of assay [23] is Klebsiella pneumoniae NCTC 5055.
For assay [24], the system named is Escherichia coli ATCC 2592.
Assay [25] relates to Cryptococcus neoformans ATCC 32045.
Assay [26] relates to Candida albicans ATCC 10231.
Assay [27] deals with Pseudomonas aeruginosa ATCC 10145.

Values after ≈ are worked out from the molar mass of the structure shown. Where only a bound is given, the exact number is not on record here.

By MIC is commonly meant the lowest concentration that inhibits growth of the organism. A high value points to a less susceptible organism. Take `CC[C@H](C)[C@H](NC(=O)[C@H](CCCCN)NC(=O)[C@H](C)NC(=O)[C@H](C)N)C(=O)N[C@H](C(=O)N[C@@H](CC(C)C)C(=O)N[C@@H](CC(N)=O)C(=O)N1CCC[C@H]1C(=O)N[C@@H](CCCCN)C(=O)N[C@@H](Cc1ccccc1)C(=O)N[C@@H](CCCN=C(N)N)C(=O)N[C@H]1CSSC[C@@H](C(N)=O)NC(=O)[C@H](Cc2ccccc2)NC(=O)[C@H](C)NC(=O)[C@H](C)NC(=O)[C@H](CCCCN)NC1=O)[C@@H](C)CC` [AAKIILNPKFRCKAAFC]: the minimum inhibitory concentration (MIC) in [1] was > 128 µM; in [2], ≥ 64 µM; in assay [3], > 128 µM; in assay [4], ≥ 128 µM; in assay [5], ≥ 32 µM; in assay [6], ≥ 128 µM. Also, the MIC in assay [7] was > 128 µM; in assay [8] it was ≥ 32 µM; in [9], 64 µM (≈ 121 µg/mL); in [10] it was > 128 µM; in [11], ≥ 128 µM; in assay [12], ≥ 128 µM. Further, the MIC in assay [13] is ≥ 128 µM; in assay [14] it was ≥ 64 µM; in assay [15], 64 µM (≈ 121 µg/mL).
As for `CC[C@H](C)[C@H](NC(=O)[C@H](CCCN=C(N)N)NC(=O)[C@H](C)NC(=O)[C@H](C)N)C(=O)N[C@H](C(=O)N[C@@H](CC(C)C)C(=O)N[C@@H](CCCN=C(N)N)C(=O)N1CCC[C@H]1C(=O)N[C@@H](CCCN=C(N)N)C(=O)N[C@@H](Cc1ccccc1)C(=O)N[C@@H](CCCN=C(N)N)C(N)=O)[C@@H](C)CC` [AARIILRPRFR], the MIC was > 128 µM in assay [1]; 16 µM (≈ 21.9 µg/mL) in assay [2]; > 128 µM in assay [3]; 8 µM (≈ 10.9 µg/mL) in [4]; 16 µM (≈ 21.9 µg/mL) in [5]; ≥ 128 µM in assay [6]. Further, the MIC in [7] is > 128 µM; in assay [8], 16 µM (≈ 21.9 µg/mL); in [9], 16 µM (≈ 21.9 µg/mL); in assay [10] it was > 128 µM; in assay [11], 16 µM (≈ 21.9 µg/mL); in assay [12], ≥ 128 µM. Further, the results for the MIC in [13], in assay [14] and in assay [15] were ≥ 128 µM, 8 µM (≈ 10.9 µg/mL) and > 128 µM, respectively.
For `CC[C@H](C)[C@H](NC(=O)[C@H](CCCN=C(N)N)NC(=O)[C@H](C)NC(=O)[C@H](C)N)C(=O)N[C@H](C(=O)N[C@@H](CC(C)C)C(=O)N[C@@H](CCCN=C(N)N)C(=O)N[C@@H](Cc1ccc(O)cc1)C(=O)N[C@@H](CCCN=C(N)N)C(=O)N[C@@H](Cc1ccccc1)C(=O)N[C@@H](CCCN=C(N)N)C(N)=O)[C@@H](C)CC` [AARIILRYRFR], the MIC was found to be 4 µM (≈ 5.74 µg/mL) in assay [1]; 4 µM (≈ 5.74 µg/mL) in [2]; 4 µM (≈ 5.74 µg/mL) in assay [4]; 4 µM (≈ 5.74 µg/mL) in assay [5]; 16 µM (≈ 22.9 µg/mL) in assay [6]; 16 µM (≈ 22.9 µg/mL) in assay [7]. Moreover, the MIC was 4 µM (≈ 5.74 µg/mL) in assay [8]; 8 µM (≈ 11.5 µg/mL) in [9]; 2 µM (≈ 2.87 µg/mL) in assay [10]; 4 µM (≈ 5.74 µg/mL) in assay [11]; ≥ 64 µM in assay [12]; ≥ 128 µM in [13]. For the same compound, the MIC in [14] came out at 4 µM (≈ 5.74 µg/mL); in assay [15] it was 8 µM (≈ 11.5 µg/mL).
Consider `CC[C@H](C)[C@H](N)C(=O)NCC(=O)N[C@@H](CCCCN)C(=O)N[C@@H](Cc1ccccc1)C(=O)N[C@@H](CC(C)C)C(=O)N[C@@H](CCCCN)C(=O)N[C@@H](CCCCN)C(=O)N[C@@H](C)C(=O)N[C@@H](CCCCN)C(=O)N[C@@H](CCCCN)C(=O)N[C@@H](Cc1ccccc1)C(=O)NCC(=O)N[C@@H](CCCCN)C(=O)N[C@@H](C)C(=O)N[C@@H](Cc1ccccc1)C(=O)N[C@H](C(=O)N[C@@H](CCCCN)C(N)=O)C(C)C` [IGKFLKKAKKFGKAFVK], for which the MIC in assay [16] is ≥ 264 µM; in [7] it was 2.92 µM (≈ 5.65 µg/mL); in assay [17], 11.7 µM (≈ 22.6 µg/mL); in assay [15], > 264 µM.
Take `CC[C@H](C)[C@H](N)C(=O)N[C@H](C(=O)N[C@@H](CCC(=O)O)C(=O)N[C@H](C(=O)N[C@H](C(=O)N[C@H](C(=O)N[C@H](C(=O)N[C@@H](CC(C)C)C(=O)N[C@@H](CC(C)C)C(=O)N[C@@H](CC(N)=O)C(=O)N[C@@H](CCCN=C(N)N)C(=O)N[C@@H](CC(C)C)C(=O)N[C@H](C(=O)N[C@@H](CC(=O)O)C(=O)N[C@@H](CCCN=C(N)N)C(=O)N[C@@H](CC(C)C)C(=O)N[C@@H](CCC(=O)O)C(=O)N[C@@H](CCCCN)C(=O)O)[C@@H](C)O)[C@@H](C)CC)[C@@H](C)O)[C@@H](C)CC)C(C)C)[C@@H](C)O` [ITEVITILLNRLTDRLEK]: the MIC in assay [7] was > 100 µM; in [18], ≥ 100 µM; in assay [19] it was ≥ 100 µM; in [20], ≥ 100 µM; in assay [21] it was > 100 µM; in [22], ≥ 100 µM. In [23], the MIC is ≥ 100 µM.
In the case of `C[C@H](NC(=O)[C@H](Cc1ccccc1)NC(=O)[C@H](CCCCN)NC(=O)[C@H](Cc1ccccc1)NC(=O)[C@H](C)NC(=O)[C@H](Cc1ccccc1)NC(=O)[C@H](CCCCN)NC(=O)[C@H](Cc1ccccc1)NC(=O)[C@H](C)NC(=O)[C@H](Cc1ccccc1)NC(=O)[C@H](CCCCN)NC(=O)[C@H](Cc1ccccc1)NC(=O)[C@H](C)NC(=O)[C@H](Cc1ccccc1)NC(=O)[C@H](CCCCN)NC(=O)[C@H](Cc1ccccc1)NC(=O)[C@H](C)NC(=O)[C@H](Cc1ccccc1)NC(=O)[C@H](CCCCN)NC(=O)[C@H](Cc1ccccc1)NC(=O)[C@H](C)NC(=O)[C@H](Cc1ccccc1)NC(=O)[C@H](CCCCN)NC(=O)[C@H](Cc1ccccc1)NC(=O)[C@H](C)NC(=O)[C@H](Cc1ccccc1)NC(=O)[C@@H](N)CCCCN)C(=O)N[C@@H](Cc1ccccc1)C(=O)O` [KFAFKFAFKFAFKFAFKFAFKFAFKFAF], the MIC in [16] was ≥ 144 µM; in [24], ≥ 288 µM; in [25], ≥ 50.9 µM; in [26], > 144 µM; in assay [27], ≥ 72 µM.
As for `C[C@H](NC(=O)[C@H](Cc1ccccc1)NC(=O)[C@H](CCCCN)NC(=O)[C@H](CCCCN)NC(=O)[C@H](C)NC(=O)[C@H](Cc1ccccc1)NC(=O)[C@H](CCCCN)NC(=O)[C@H](CCCCN)NC(=O)[C@H](C)NC(=O)[C@H](Cc1ccccc1)NC(=O)[C@H](CCCCN)NC(=O)[C@H](CCCCN)NC(=O)[C@H](C)NC(=O)[C@H](Cc1ccccc1)NC(=O)[C@@H](N)CCCCN)C(=O)N[C@@H](CCCCN)C(=O)O` [KFAKKFAKKFAKKFAK], the MIC was ≥ 130 µM in assay [16]; ≥ 45.9 µM in assay [24]; 3.62 µM (≈ 6.93 µg/mL) in [25]; 55.3 µM (≈ 106 µg/mL) in assay [26]; ≥ 65.2 µM in [27].
The matching figures for `CC(C)C[C@H](NC(=O)[C@H](CCCCN)NC(=O)[C@H](CC(C)C)NC(=O)[C@H](CCCCN)NC(=O)[C@H](CC(C)C)NC(=O)[C@H](CCCCN)NC(=O)[C@H](CC(C)C)NC(=O)[C@H](CCCCN)NC(=O)[C@H](CC(C)C)NC(=O)[C@H](CCCCN)NC(=O)[C@H](CC(C)C)NC(=O)[C@H](CCCCN)NC(=O)[C@H](CC(C)C)NC(=O)[C@H](CCCCN)NC(=O)[C@H](CC(C)C)NC(=O)[C@H](CCCCN)NC(=O)[C@H](CC(C)C)NC(=O)[C@H](CCCCN)NC(=O)[C@H](CC(C)C)NC(=O)[C@H](CCCCN)NC(=O)[C@H](CC(C)C)NC(=O)[C@H](CCCCN)NC(=O)[C@@H](N)CC(C)C)C(=O)N[C@@H](CCCCN)C(=O)O` [LKLKLKLKLKLKLKLKLKLKLKLK]: ≥ 85.8 µM, 30.2 µM (≈ 88 µg/mL), 15.3 µM (≈ 44.5 µg/mL), 121 µM (≈ 354 µg/mL) and 15.4 µM (≈ 45 µg/mL).

For the origin of these results see DBAASP.
